The text below walks through data of patent US7816511B2, “Remedies for heart failure” (Asubio Pharma Co., Ltd., priority 2000, dated 2010).

For one data set, the system named is OSF-2 promoter. Nature of the data set: Reporter assay using COS-1 cells with human OSF-2 reporter plasmid pGL3-hOSFgE (luciferase). The format is cell-based. The note with it: 24 hours after compound addition, pGL3-control (SV40 promoter) as control. The source says:
A region extending from about 2 kb upstream of the initiation codon to immediately before the initiation codon was amplified by PCR using human OSF-2 gene #2 obtained in Example 10-1 as a template and primers (12) 5′-[…]-3′ (SEQ ID NO: 25) and (13) 5′-[…]-3′ (SEQ ID NO: 26). Primer (13) was designed to insert a restriction enzyme XhoI recognition site into the 5′ end, and this amplified fragment was digested with restriction enzymes SpeI and XhoI to give a fragment of about 2 kb, which was then ligated to a vector fragment of pGL3-enhancer (Promega) digested with restriction enzymes NheI and XhoI located upstream of the luciferase gene using a ligation kit (TAKARA SHUZO CO., LTD.) to give pGL3-hOSFgE. The nucleotide sequence of the insert was determined according to the method of Example 1-5 to confirm that it was identical with the nucleotide sequence determined in Example 10-1.
COS-1 cells were plated on a 96-well plate at a density of 3×10^4 cells/well and the plate was incubated at 37° C. for 16-24 hours and then transiently transfected with OSF-2 reporter plasmid pGL3-hOSFgE shown in Example 10 using LipofectAMINE 2000 reagent (GIBCO), and after incubation for 24 hours at 37° C., the medium was replaced. […] Luciferase activity was assayed according to the protocol of a luciferase assay system (Promega) and detected with 1420 multilabel counter (Wallac). […]
A general note: In a reporter assay the amount or activity of a reporter protein is the signal.

Another data set concerns OSF-2 mRNA. Put plainly: Expression analysis of OSF-2 mRNA using MC3T3-E1 cells (real-time PCR). In kind it is cell-based, murine. The note with it: 30 μM, 24 hours. Background: In qPCR the cycle at which signal appears reflects the starting amount.
Data set [1] has as its system Myc-His-rOSF-2 fused protein. Nature of the data set: Selection of antisense nucleotide sequences: ELISA of Myc-His-rOSF-2 fused protein in transfected COS-1 cells. The format is cell-based, rat. The source says:
Five antisense nucleotide sequences shown as SEQ ID NOs: 12-16 were designed by selecting regions containing an initiation codon AUG but not containing three continuous guanines (triplet G) and incapable of forming a hairpin structure or self-annealing and synthesized by an outer contractor. All the antisense nucleotide sequences are phosphorothioate type.
The Myc-His-rOSF-2 fused protein expression vector pcDNA4/Myc-His/rOSF-2 described in Example 5 was introduced into COS-1 cells, and the antisense nucleotide sequences prepared in 1 above were introduced to screen antisense nucleotide sequences inhibiting the expression of Myc-His-rOSF 2 fused protein. The expression level of Myc-His-rOSF-2 fused protein was assayed by ELISA (Enzyme-Linked Immunosorbent Assay) using a Myc-specific monoclonal antibody (Invitrogen). Specifically, COS-1 cells were plated on a 96-well plate at a density of 2×10^4 cells/well. […]
The culture supernatant was immobilized to an EIA/RIA plate (Costar) by incubating 50 μl thereof at 37° C. for 1-2 hours, and washed twice with 200 μl of Dulbecco's phosphate-buffered saline containing 0.1% Tween (PBST). […] After incubation with 50 μl of TMB (3,3′,5,5′-tetramethylbenzidine) reagent (KPL) at room temperature for 30 minutes, the reaction was stopped by adding 50 μl of 0.1 N sulfuric acid and the absorbance at 450 nm was measured with a microplate reader. […]

A further data set deals with Sprague-Dawley rats. Nature of the data set: Echocardiography 3 weeks after co-transfection of rOSF-2 plasmid and antisense/sense/scramble nucleotides into the rat heart. The format is in vivo. Conditions: 3 weeks post transfection; for EDV: end-diastolic volume / ESV: end-systolic volume / FS: fractional shortening of the inner diameter of the left ventricle / IVPWD / IVSTD: thickness of the end-diastolic interventricular septum / LVIDD: inner diameter of the end-diastolic left ventricle / LVIDS: inner diameter of the end-systolic left ventricle / LVPWS: thickness of the posterior wall of the end-systolic left ventricle / TVSTS: echocardiography, nucleotides co-injected with rOSF-2 plasmid. The protocol:
HVJ-liposomes were prepared as described in Example 6 by adding 50 μl of HMG-1,-2 mixture (1 mg/ml, Wako Pure Chemical Industries) to 200 μg of the plasmid solution prepared in Example 6.1 and 1.4 mg of the antisense nucleotide solution selected in Example 7. Sense and scramble nucleotide sequences were also prepared in the same manner.
The HVJ-liposome/DNA solution was injected into the left ventricle of the heart (apical and lateral sites) of 13-weeks old Sprague-Dawley rats (male) in an amount of 100 μl each at 3 sites (a total volume of 300 μl) using a 30-gauge needle (rOSF-2/antisense group, rOSF-2/sense group and rOSF-2/scramble group). Similarly, pcDNA4/rOSF-2 was injected as a positive control group and pcDNA4/His-Myc vector was injected as a negative control group.
After anesthesia with ketamine (50 mg/ml) and xylazine (10 mg/ml) at 3 weeks post transfection, echocardiography was performed using Core Vision Pro SSA 350A (probe: 7 MHz, Toshiba).

The subject of the next data set is Dahl-S rats. Put plainly: Survival of Dahl-S heart failure model rats after antisense transfection into the heart. The format is in vivo, rat. Conditions: 30 weeks post transfection, Dahl-S rats on 8% salt diet. The method, then: HVJ-liposomes were prepared as described in Example 6.2 by adding 50 μl of HMG-1,-2 mixture (1 mg/ml, Wako Pure Chemical Industries) to 1.4 mg of a solution of the antisense nucleotides selected in Example 7 dissolved in BSS buffer. Sense nucleotides were also prepared in the same manner.
The HVJ-liposome/DNA solution was injected into the left ventricle of the heart (apical and lateral sites) of 13-weeks old Dahl-S rats (DIS/Eis, Eisai, male) raised on an 8% salt diet from the age of 8 weeks in an amount of 75 μl each at 4 sites (a total volume of 300 μl) using a 30-gauge needle (antisense group: 13 rats, sense group: 13 rats).

As to `Nc1nc(Cl)nc2c1ncn2[C@@H]1O[C@H](COP(=O)([O-])OP(=O)([O-])OP(=O)([O-])[O-])[C@@H](O)[C@H]1O.[Na+].[Na+].[Na+].[Na+]` [2-chloroadenosine 5′-triphosphate tetrasodium], the luciferase activity entry with OSF-2 promoter is recorded as “inhibit luciferase activity specifically to OSF-2 promoter”. In addition, the “expression of OSF-2 mRNA (standardized by GAPDH mRNA)” value with OSF-2 mRNA is “inhibited the expression of OSF-2 mRNA”.

Take `Cc1ccccc1CNc1ncnc2c1ncn2[C@@H]1O[C@H](CO)[C@@H](O)[C@H]1O` [Metrifudil, N-[(2-methylphenyl)methyl]-adenosine]: the luciferase activity entry with OSF-2 promoter is “inhibit luciferase activity specifically to OSF-2 promoter”. For the same molecule, the “expression of OSF-2 mRNA (standardized by GAPDH mRNA)” value with OSF-2 mRNA was “inhibited the expression of OSF-2 mRNA”.

“SEQ ID NO: 12: phosphorothioate antisense nucleotide sequence containing the initiation codon region of rat OSF-2; the one selected in Example 7 (AGGAACCATCTTCAGCCCTG; all phosphorothioate, sugars by position and methylation of C not given here)”: the “inhibitory activity against OSF-2 protein production” value in data set [1] (final concentration 10 nM, FIG. 3) is “stronger inhibitory activity against OSF-2 protein production than the sense and scramble nucleotide sequences”. Also, the “inhibitory activity against OSF-2 protein production” value in data set [1] (final concentration 100 nM, 3 days, FIG. 2) is “inhibited the expression the most strongly”. In the data set on Sprague-Dawley rats, the “cardiac dilatation (LVIDD, LVIDS vs. positive control, sense and scramble groups)” value is “inhibited cardiac dilatation”; the “EDV: end-diastolic volume” value came to 210.0 ± 6.8 µL; the “ESV: end-systolic volume” value amounted to 43.3 ± 5.1 µL; the “FS: fractional shortening of the inner diameter of the left ventricle” value (shortened to “FS: fractional shortening”) came to 49.5 ± 1.7%. Further, in the data set with Sprague-Dawley rats, the IVPWD worked out at 2.20 ± 0.13 mm, the “IVSTD: thickness of the end-diastolic interventricular septum” value (shortened to “IVSTD: thickness”) is 1.68 ± 0.12 mm, the “LVIDD: inner diameter of the end-diastolic left ventricle” value (“LVIDD: inner diameter” below) is listed as 6.42 ± 0.09 mm and the “LVIDS: inner diameter of the end-systolic left ventricle” value (“LVIDS: inner diameter” for short) is 3.25 ± 0.15 mm. For the same molecule, in the data set on Sprague-Dawley rats, the “LVPWS: thickness of the posterior wall of the end-systolic left ventricle” value (“LVPWS: thickness” below) is on record as 2.80 ± 0.17 mm and the TVSTS amounted to 3.07 ± 0.16 mm. Further, the survival rate with Dahl-S rats was determined as 100%.

Take “scramble: scramble nucleotide sequence with the 5′, 3′ direction reversed to SEQ ID NO: 12 (GTCCCGACTTCTACCAAGGA; listed as DNA, chemistry not given here)”: in the data set with Sprague-Dawley rats, the “EDV: end-diastolic volume” value is 307.6 ± 10.4 µL, the “ESV: end-systolic volume” value was 73.4 ± 7.5 µL, the “FS: fractional shortening” value is on record as 46.7 ± 1.6% and the IVPWD stood at 1.68 ± 0.07 mm. For the same molecule, in the data set with Sprague-Dawley rats, the “IVSTD: thickness” value turned out to be 1.26 ± 0.12 mm, the “LVIDD: inner diameter” value came out at 7.60 ± 11 mm, the “LVIDS: inner diameter” value was 4.06 ± 0.18 mm and the “LVPWS: thickness” value turned out to be 2.66 ± 0.07 mm. The molecule further registered a TVSTS with Sprague-Dawley rats of 2.60 ± 0.15 mm.

With “sense: sense nucleotide sequence that is a sense strand corresponding to SEQ ID NO: 12 (CAGGGCTGAAGATGGTTCCT; listed as DNA, chemistry not given here)”, in the data set with Sprague-Dawley rats, the “EDV: end-diastolic volume” value came out at 339.2 ± 17.9 µL, the “ESV: end-systolic volume” value came to 82.4 ± 10.2 µL, the “FS: fractional shortening” value came out at 46.7 ± 1.6% and the IVPWD was determined as 1.46 ± 0.11 mm. For the same molecule, in the data set on Sprague-Dawley rats, the “IVSTD: thickness” value was 1.26 ± 0.07 mm, the “LVIDD: inner diameter” value stood at 7.93 ± 0.18 mm, the “LVIDS: inner diameter” value was 4.24 ± 0.22 mm and the “LVPWS: thickness” value stood at 2.30 ± 0.15 mm. In the data set with Sprague-Dawley rats, this molecule showed a TVSTS of 2.50 ± 0.07 mm. Further, the survival rate with Dahl-S rats was determined as 61.5%.
